The text below walks through data of ChEMBL document CHEMBL5385919, “A Survey of Recently Discovered Naturally Occurring Organohalogen Compounds” (J Nat Prod, 2024).

≈ marks a conversion by molar mass, not a printed value. Numbered stars: 1 amine (or outer) side, 2 acyl side, 3 side chain; on linkers, the order of the positions; unused ones are H or OH. Square brackets hold non-standard residues; d marks the D form. Peptide text beside a SMILES is read from it. X1 = CC(C)(O)/C=C/[C@]12C[C@@H](C(=O)[*:2])N([*:1])[C@@H]1Nc1ccc(Br)cc12

A word on the IC50: it is the concentration that gives 50% inhibition. A word on the MIC: it is the lowest concentration that inhibits growth of the organism. A word on the EC50: it is the midpoint of the concentration-response curve. By GI50 is commonly meant the concentration giving 50% growth inhibition.

For assay [1], the target named is E3 ubiquitin-protein ligase CBL-B (Homo sapiens, UniProt Q13191). The assay is described as follows: Inhibition of recombinant Cbl-b (unknown origin) in presence of ATP incubated for 60 mins by ELISA analysis. (In general: An ELISA detects its analyte on a solid surface through an enzyme-linked reagent.)
Sequence of E3 ubiquitin-protein ligase CBL-B (Q13191 whole entry): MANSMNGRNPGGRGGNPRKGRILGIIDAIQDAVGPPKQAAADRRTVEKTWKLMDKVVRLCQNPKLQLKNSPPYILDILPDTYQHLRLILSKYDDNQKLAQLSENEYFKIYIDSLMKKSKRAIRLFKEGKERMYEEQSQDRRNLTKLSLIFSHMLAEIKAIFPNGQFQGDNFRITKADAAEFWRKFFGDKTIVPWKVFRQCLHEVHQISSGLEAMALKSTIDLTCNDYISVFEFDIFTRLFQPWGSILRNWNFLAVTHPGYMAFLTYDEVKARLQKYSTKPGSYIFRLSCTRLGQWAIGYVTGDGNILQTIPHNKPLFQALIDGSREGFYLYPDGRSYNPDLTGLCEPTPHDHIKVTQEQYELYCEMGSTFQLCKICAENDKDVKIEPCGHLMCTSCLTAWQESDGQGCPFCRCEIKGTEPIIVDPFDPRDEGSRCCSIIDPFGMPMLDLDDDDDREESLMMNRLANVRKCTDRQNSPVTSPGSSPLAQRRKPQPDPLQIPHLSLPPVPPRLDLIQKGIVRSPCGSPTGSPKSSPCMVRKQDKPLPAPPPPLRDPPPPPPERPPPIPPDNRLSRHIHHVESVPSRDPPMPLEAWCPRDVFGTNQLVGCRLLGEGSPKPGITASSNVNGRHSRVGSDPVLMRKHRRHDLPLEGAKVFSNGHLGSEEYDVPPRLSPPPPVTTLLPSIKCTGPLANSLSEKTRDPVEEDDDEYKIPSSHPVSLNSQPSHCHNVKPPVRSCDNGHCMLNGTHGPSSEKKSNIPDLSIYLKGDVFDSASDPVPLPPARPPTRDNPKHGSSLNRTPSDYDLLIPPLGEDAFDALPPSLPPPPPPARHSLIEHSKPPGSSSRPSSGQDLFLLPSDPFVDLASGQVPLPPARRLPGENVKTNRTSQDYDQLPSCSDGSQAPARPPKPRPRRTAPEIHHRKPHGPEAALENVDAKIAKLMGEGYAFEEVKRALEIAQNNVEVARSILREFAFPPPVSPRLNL
Assay [2] has as its system RAW264.7. The assay is described as follows: Inhibition of LPS-induced NO production in mouse RAW264.7 cells. The assay is classed as functional, cell-based.
Assay [3] relates to MGC-803. The assay is described as follows: Cytotoxicity against human MGC-803 cells assessed as inhibition of cell growth incubated for 48 hrs by MTT assay. In kind it is functional, cell-based. The conditions noted are these: MGC-803, 48 h. On the technique in general: Formazan colour is commonly taken as a measure of viable cells.
The test system of assay [4] is HL-60. Kind of assay: Cytotoxicity against human HL-60 cells assessed as inhibition of cell growth incubated for 48 hrs by MTT assay. To be noted: HL-60, 48 h. In kind it is functional, cell-based.
Assay [5] has as its system KB. Kind of assay: Cytotoxicity against human KB cells assessed as inhibition of cell growth incubated for 48 hrs by MTT assay. In kind it is functional, cell-based.
Assay [6] deals with MCF7. Kind of assay: Cytotoxicity against human MCF7 cells assessed as inhibition of cell growth incubated for 48 hrs by MTT assay. In kind it is functional, cell-based. To be noted: MCF7, 48 h.
In assay [7] the test system is Staphylococcus aureus. The assay is described as follows: Antibacterial activity against Staphylococcus aureus FDA 209P JC-1 assessed as reduction in bacterial growth. The assay is classed as functional.
The subject of assay [8] is Kocuria rhizophila. Kind of assay: Antibacterial activity against Kocuria rhizophila ATCC9341 assessed as reduction in bacterial growth. In kind it is functional.
The test system of assay [9] is P388. Kind of assay: Cytotoxicity against mouse P388 cells assessed as inhibition of cell growth. In kind it is functional, cell-based.
Assay [10] has as its system Bacillus subtilis. Kind of assay: Antibacterial activity against Bacillus subtilis PCI219 assessed as reduction in bacterial growth. In kind it is functional.
A short description of assay [11]: Inhibition of neuronal excitability in mouse Primary neocortical neuron assessed as reduction in 4-AP-induced SCO amplitude measured for 1 hr by FLIPR assay. The assay is classed as functional, cell-based.
Assay [12] can be described thus: Inhibition of neuronal excitability in mouse Primary neocortical neuron assessed as reduction in 4-AP-induced SCO frequency measured for 1 hr by FLIPR assay. In kind it is functional, cell-based.
Assay [13] relates to A549. Kind of assay: Cytotoxicity against human A549 cells assessed as inhibition of cell growth incubated for 48 hrs by MTT assay. In kind it is functional, cell-based. The conditions noted are these: A549, 48 h.
Assay [14] has as its system Bacillus subtilis. The assay is described as follows: Antibacterial activity against Bacillus subtilis ATCC 6633 assessed as reduction in bacterial growth. The assay is classed as functional.
Assay [15] relates to Trypanosoma brucei rhodesiense. Kind of assay: Antitrypanosomal activity against Trypanosoma brucei rhodesiense IL-1501 assessed as inhibition of cell growth incubated for 69 hrs by AlamarBlue assay. In kind it is functional, organism-based.
For assay [16], the system named is Plasmodium falciparum. The assay is described as follows: Antiplasmodial activity against Plasmodium falciparum K1 assessed as reduction in parasite growth. The assay is classed as functional, organism-based.
Assay [17] deals with Bacillus subtilis. Kind of assay: Antibacterial activity against Bacillus subtilis assessed as reduction in bacterial growth. In kind it is functional.
Assay [18] relates to Staphylococcus aureus. The assay is described as follows: Antibacterial activity against Staphylococcus aureus assessed as reduction in bacterial growth. The assay is classed as functional.
For assay [19], the system named is Aspergillus sydowii. The assay is described as follows: Antifungal activity against Aspergillus sydowii SCSIO 00305 assessed as inhibition of fungal growth. The assay is classed as functional, organism-based.
The subject of assay [20] is MH60. The assay is described as follows: Cytotoxicity in mouse MH60 cells assessed as inhibition of cell growth. In kind it is functional, cell-based.
For assay [21], the system named is Candida albicans. Kind of assay: Antifungal activity against Candida albicans assessed as reduction in […] growth. In kind it is functional.
The subject of assay [22] is Bacillus mycoides. Kind of assay: Antibacterial activity against Bacillus mycoides assessed as reduction in bacterial growth. In kind it is functional.
Assay [23] relates to Staphylococcus aureus. The assay is described as follows: Antibacterial activity against methicillin resistant Staphylococcus aureus assessed as reduction in bacterial growth. The assay is classed as functional, organism-based.
Assay [24] deals with Mycolicibacterium smegmatis. The assay is described as follows: Antibacterial activity against Mycolicibacterium smegmatis assessed as reduction in bacterial growth. The assay is classed as functional.
For assay [25], the system named is HeLa. The assay is described as follows: Cytotoxicity against human HeLa cells assessed as inhibition of cell growth. The assay is classed as functional, cell-based.
Assay [26] deals with Vibrio harveyi. The assay is described as follows: Antimicrobial activity against Vibrio harveyi assessed as bacterial growth inhibition incubated for 12 hrs by serial dilution analysis. The assay is classed as functional.
The subject of assay [27] is Prorocentrum minimum. The assay is described as follows: Antimicrobial activity against Prorocentrum minimum assessed as […] growth inhibition. The assay is classed as functional.
The subject of assay [28] is RAW264.7. Kind of assay: Antiinflammatory activity in mouse RAW264.7 cells assessed as inhibition of LPS-induced NO production pretreated with compound for 1 hr followed by LPS-induction and measured after 48 hrs by microplate reader analysis. The assay is classed as functional, cell-based.
Assay [29] relates to Vibrio harveyi. The assay is described as follows: Antimicrobial activity against Vibrio harveyi assessed as bacterial growth inhibition. In kind it is functional.
Assay [30] in a line: Antioxidant activity assessed as DPPH radical scavenging activity. The assay is classed as functional. Background: Loss of DPPH colour is used to gauge radical scavenging.
The subject of assay [31] is Bacillus subtilis. The assay is described as follows: Antibacterial activity against Bacillus subtilis KCTC 1021 assessed as reduction in bacterial growth incubated for 24 hrs by Mueller-Hinton broth based assay. The assay is classed as functional.
Assay [32] deals with Kocuria rhizophila. The assay is described as follows: Antibacterial activity against Kocuria rhizophila KCTC 1915 assessed as reduction in bacterial growth incubated for 24 hrs by Mueller-Hinton broth based assay. The assay is classed as functional.
Assay [33] has as its system Staphylococcus aureus. The assay is described as follows: Antibacterial activity against Staphylococcus aureus KCTC 1927 assessed as reduction in bacterial growth incubated for 24 hrs by Mueller-Hinton broth based assay. The assay is classed as functional.
Assay [34] deals with Bacillus cereus. Kind of assay: Antibacterial activity against Bacillus cereus assessed as reduction in bacterial growth. In kind it is functional.
Assay [35] concerns ACHN. The assay is described as follows: Growth inhibition of human ACHN cells assessed as cell viability incubated for 48 hrs by SRB assay. The assay is classed as functional. To be noted: pooled result: one value given for 6 cell lines, strains, targets or settings.
The subject of assay [36] is Micrococcus luteus. Kind of assay: Antimicrobial activity against Micrococcus luteus assessed as bacterial growth inhibition. In kind it is functional.
Assay [37] deals with Trypanosoma brucei rhodesiense. Kind of assay: Antitrypanosomal activity against Trypanosoma brucei rhodesiense. The assay is classed as functional, organism-based.
Assay [38] concerns MOLT-4. The assay is described as follows: Cytotoxicity against human MOLT-4 cells assessed as inhibition of cell growth incubated for 24 hrs by MTT assay. The assay is classed as functional, cell-based. The conditions noted are these: MOLT-4, 24 h.

For `Cn1cc(Br)cc1C(=O)NC[C@@H]1[C@@H](CNC(=O)c2ccc(Br)[nH]2)Cc2nc(N)[nH]c2[C@H]1c1c[nH]c(N)n1`, the IC50 in [1] was 33 µM. With `CC(=O)/C=C/C1=CC[C@H]2[C@@H](C[C@@H]1C)OC(=O)[C@]2(O)CCl`, the IC50 in assay [2] came to 16 µM.

As for `COc1c(Cl)ccc2c(=O)c3c(O)c4c5c(c3oc12)OCO[C@@H]5Cc1c-4c(O)c2c(=O)[nH]c(C)c(Cl)c2c1O`, the IC50 in assay [3], in [4], in assay [5] and in [6] was 8 ng/mL (≈ 0.014 µM) in each case.

For `Cc1c(O)cc2c(c1O)C(=O)C1=C(OC(C)(C)[C@H](Cl)C1)C2=O`, the MIC in [7], in [8] and in [10] was 6.25 µg/mL (≈ 19.4 µM) in each case. Besides, the IC50 in [9] was determined as 9.8 µM.

Turning to `CC(C)(O)C(=O)OC[C@](C)(O)[C@H]1OC2=CC[C@@]3(C)[C@@](O)(CC[C@H]4Cc5c([nH]c6cc(Cl)ccc56)[C@@]43C)C2=CC1=O`, the EC50 in assay [11] came to 5.62 µM; in assay [12], 4.77 µM. For the compound `CC(C)=C1C[C@@]2(COC(=O)Cc3cc(O)c(O)c(Cl)c3)C(=CC1=O)CC[C@@H](O)[C@@H]2C`, in assay [13], the IC50 amounted to 3.2 µM. As to `CO[C@H]1C[C@@H](O)[C@H](OC)c2oc3c4c5c(c(O)c3c(=O)c21)-c1c(cc2c(Cl)c(C)[nH]c(=O)c2c1O)C[C@H]5OCO4`, the MIC in assay [14] was 0.098 µg/mL (≈ 0.172 µM); in assay [7], 0.049 µg/mL (≈ 0.086 µM). With `Oc1cc(Br)cc(Br)c1Oc1cc(Br)c(Br)c(Br)c1Oc1ccc(Br)cc1Br`, in assay [15], the IC50 turned out to be 1200 nM. Turning to `Oc1cc(Br)cc(Br)c1Oc1cc(Br)c(Br)c(Br)c1Oc1ccc(Br)cc1I`, in assay [15], the IC50 was 700 nM. For `Cc1cc(O)cc2c1[C@@H]1O[C@@](C)(Cc3cc4c(c(O)c31)C(=O)c1c(O)cc(O)c(Cl)c1C4(C)C)O2`, the IC50 in assay [16] was determined as 4.49 µM. In addition, the results for the MIC in [17] and in [18] were 0.4 µg/mL and 0.8 µg/mL, respectively. For `COc1cc2oc3cc4c(c(OC)c3c(=O)c2c(OC)c1Cl)[C@@H]1C=CO[C@@H]1O4`, the half-maximal inhibitory concentration (IC50) in assay [19] worked out at 2900 nM.

As for `CC(C)=CCC1OC1(C)C1(O)C(O)C(=O)CC[C@]1(O)CCl` (stereo not given in full), in assay [20], the IC50 amounted to 7.5 µM. For the compound `COc1ccc2[nH]c3c(O)cccc3c2c1Cl`, the MIC in [21], in assay [22], in assay [23] and in assay [24] was 32 µg/mL (≈ 129 µM) each time. `CO[C@H]1C[C@@H](O)[C@H](OC)c2oc3c4c5c(c(O)c3c(=O)c21)-c1c(cc2c(Cl)c(C)n(N)c(=O)c2c1O)C[C@H]5OCO4`: the MIC in assay [14] and in [7] was 0.001 µg/mL (≈ 0.00171 µM) in each case. Further, the IC50 in [25] worked out at 0.04 nM. For the compound `COc1cc(OC)c2c(O)c3c(=O)cc(C)oc3c(-c3c(OC)cc4c(I)c(O)c5c(=O)cc(C)oc5c4c3OC)c2c1`, the MIC came to 8 µg/mL (≈ 11.5 µM) in assay [26] and 0.61 µg/mL (≈ 0.876 µM) in assay [27].

With `C#C/C=C\CC(Br)[C@@H]1C[C@@H](OC(C)=O)[C@H](CCCCCC)O1` (stereo not given in full), in assay [28], the IC50 is 3.69 µM.

Take `COC(=O)/C=C/C(=O)N[C@H](Cc1ccc(O)c(Cl)c1)C(=O)OC`: the MIC in assay [29] was found to be 16 µg/mL (≈ 46.8 µM). In the case of `O=Cc1cc(Br)c(O)c(O)c1Cc1ccc(O)c(Br)c1`, the IC50 in assay [30] came out at 3.5 µM. Take `CC(C)=C(C/C=C(\C)CC[C@@H](Cl)C(C)(C)Cl)C[C@@]1(O)C(=O)c2cc(O)cc(O)c2C(=O)[C@@]1(C)Cl`: the MIC in assay [31], in [32] and in assay [33] was 1 µg/mL (≈ 1.88 µM) in each case. As to `C/C=C(\C)c1c(Cl)c(O)c(C)c2c1Oc1c(C)c(O)c(Cl)c(/C(C)=C/C)c1C(=O)O2`, the figures for the MIC in assay [34] and in assay [18] were 1.56 µg/mL (≈ 3.47 µM) and 1.56 µg/mL, respectively.

For the compound `CC(C)Cc1c(O)cc2oc3cc(Cl)cn3c(=O)c2c1O`, in assay [35], the GI50 was 4.9 µM. Also, the MIC turned out to be 0.7 µM in assay [17], 0.7 µM (≈ 0.215 µg/mL) in assay [36] and 0.7 µM in [18]. In turn, `CC(=O)O[C@@H](C/C=C/Cl)[C@@H](C)C(=O)/C=C/CCNC(=O)CC/C=C/C(C)(C)C` came in with an IC50 in assay [37] of 1200 nM.

For `CC(C)C[C@@H]1NC(=O)[C@@H]2C[C@]3(/C=C/C(C)(C)O)c4cc(Br)ccc4N[C@H]3N2C(=O)[C@@H]2CCCN2C(=O)[C@H](C(C)C)NC(=O)[C@@H]2CCCN2C(=O)[C@H](CC(C)C)NC(=O)[C@@H]2CCCN2C(=O)[C@H](CC(C)C)NC(=O)[C@@H]2CCCN2C(=O)[C@H](Cc2ccccc2)NC1=O` (cyclo(FPLPLPVP[X1]L)), in assay [38], the IC50 is 4.7 µM.
